Results from paper PMC10935503 (Acta Pharmaceutica Sinica. B, 2023).

What was measured:
Format in all cases: cell-based
HIV-1 WT strain (IIIB) = test: Anti-HIV-1 activity in MT-4 cells, MTT method, WT strain IIIB; conditions: for EC50: Human immunodeficiency virus 1, IIIB, MT4, read-out: EC50 IIIB
[1] = system: HIV-1 K103N + Y181C (RES056); test: microbe, parasite or virus in culture; conditions: for EC50: Human immunodeficiency virus 1, MT4, read-out: EC50 RES056; for RF RES056: resistance fold, EC50 (mutant strain)/EC50 (WT strain); for SI RES056: selectivity index, ratio of CC50/EC50
HIV-1 L100I = test: microbe, parasite or virus in culture; conditions: for EC50: Human immunodeficiency virus 1, MT4, read-out: EC50 L100I; for RF L100I: resistance fold, EC50 (mutant strain)/EC50 (WT strain); for SI L100I: selectivity index, ratio of CC50/EC50
HIV-1 K103N = test: microbe, parasite or virus in culture; conditions: for EC50: Human immunodeficiency virus 1, MT4, read-out: EC50 K103N; for RF K103N: resistance fold, EC50 (mutant strain)/EC50 (WT strain); for SI K103N: selectivity index, ratio of CC50/EC50
HIV-1 Y181C = test: microbe, parasite or virus in culture; conditions: for EC50: Human immunodeficiency virus 1, MT4, read-out: EC50 Y181C; for RF Y181C: resistance fold, EC50 (mutant strain)/EC50 (WT strain); for SI Y181C: selectivity index, ratio of CC50/EC50
HIV-1 Y188L = test: microbe, parasite or virus in culture; conditions: for EC50: Human immunodeficiency virus 1, MT4, read-out: EC50 Y188L; for RF Y188L: resistance fold, EC50 (mutant strain)/EC50 (WT strain); for SI Y188L: selectivity index, ratio of CC50/EC50
HIV-1 E138K = test: microbe, parasite or virus in culture; conditions: for EC50: Human immunodeficiency virus 1, MT4, read-out: EC50 E138K; for RF E138K: resistance fold, EC50 (mutant strain)/EC50 (WT strain); for SI E138K: selectivity index, ratio of CC50/EC50
HIV-1 F227L + V106A = test: microbe, parasite or virus in culture; conditions: for EC50: Human immunodeficiency virus 1, MT4, read-out: EC50 F227L + V106A; for RF F227L + V106A: resistance fold, EC50 (mutant strain)/EC50 (WT strain); for SI F227L + V106A: selectivity index, ratio of CC50/EC50
[2] = Cytotoxicity in mock-infected MT-4 cells, MTT method; conditions: human

Cc1cc(C#N)cc(C)c1Oc1nc(NC2CCN(Cc3ccc(N)cc3)CC2)nc2c1SCCC2 [23f, 4-((2-((1-(4-Aminobenzyl)piperidin-4-yl)amino)-7,8-dihydro-6H-thiopyrano[3,2-d]pyrimidin-4-yl)oxy)-3,5-dimethylbenzonitrile]
EC50 (HIV-1 WT strain (IIIB)): 7 ± 1.04 nM
EC50 [1]: 653 ± 236 nM
RF RES056 [1]: 93.3
SI RES056 [1]: 18
EC50 (HIV-1 L100I): 55.6 ± 2.68 nM
RF L100I (HIV-1 L100I): 7.9
SI L100I (HIV-1 L100I): 216
EC50 (HIV-1 K103N): 8.69 nM
RF K103N (HIV-1 K103N): 1.2
SI K103N (HIV-1 K103N): 1381
EC50 (HIV-1 Y181C): 14.7 ± 1.17 nM
RF Y181C (HIV-1 Y181C): 2.1
SI Y181C (HIV-1 Y181C): 816
EC50 (HIV-1 Y188L): 26.1 ± 3.53 nM
RF Y188L (HIV-1 Y188L): 3.7
SI Y188L (HIV-1 Y188L): 460
EC50 (HIV-1 E138K): 21.6 ± 0.56 nM
RF E138K (HIV-1 E138K): 3.0
SI E138K (HIV-1 E138K): 556
EC50 (HIV-1 F227L + V106A): 184 ± 8.33 nM
RF F227L + V106A (HIV-1 F227L + V106A): 26.3
SI F227L + V106A (HIV-1 F227L + V106A): 65
CC50 at 5 days [2]: 12000 ± 6470 nM

CCOC(=O)c1ccc(CN2CCC(Nc3nc4c(c(Oc5c(C)cc(C#N)cc5C)n3)SCCC4)CC2)cc1 [23e, Ethyl 4-((4-((4-(4-cyano-2,6-dimethylphenoxy)-7,8-dihydro-6H-thiopyrano[3,2-d]pyrimidin-2-yl)amino)piperidin-1-yl)methyl)benzoate]
EC50 (HIV-1 WT strain (IIIB)): 14.8 ± 13.5 nM
EC50 [1]: 4830 ± 517 nM
CC50 at 5 days [2]: 65300 ± 39800 nM

Cc1cc(C#N)cc(C)c1Oc1nc(NC2CCN(c3cccc(C#N)c3)CC2)nc2c1SCCC2 [compound 27a, 4-((2-((1-(3-Cyanophenyl)piperidin-4-yl)amino)-7,8-dihydro-6H-thiopyrano[3,2-d]pyrimidin-4-yl)oxy)-3,5-dimethylbenzonitrile]
EC50 (HIV-1 WT strain (IIIB)): 10.2 ± 7.57 nM
EC50 [1]: 836 ± 290 nM
CC50 at 5 days [2]: 8390 ± 5220 nM

Cc1cc(C#N)cc(C)c1Oc1nc(NC2CCN(Cc3ccc(NS(C)(=O)=O)cc3)CC2)nc2c1SCCC2 [23g, N-(4-((4-((4-(4-cyano-2,6-dimethylphenoxy)-7,8-dihydro-6H-thiopyrano[3,2-d]pyrimidin-2-yl)amino)piperidin-1-yl)methyl)phenyl)methanesulfonamide]
EC50 (HIV-1 WT strain (IIIB)): 2.37 ± 1.98 nM
EC50 [1]: 326 ± 185 nM
RF RES056 [1]: 138
SI RES056 [1]: ≥ 12
EC50 (HIV-1 L100I): 28 ± 5.38 nM
RF L100I (HIV-1 L100I): 11.8
SI L100I (HIV-1 L100I): ≥ 138
EC50 (HIV-1 K103N): 4.59 ± 0.45 nM
RF K103N (HIV-1 K103N): 1.9
SI K103N (HIV-1 K103N): ≥ 843
EC50 (HIV-1 Y181C): ≤ 8.29 nM
RF Y181C (HIV-1 Y181C): ≤ 3.5
SI Y181C (HIV-1 Y181C): ≥ 467
EC50 (HIV-1 Y188L): 12.7 ± 2.99 nM
RF Y188L (HIV-1 Y188L): 5.4
SI Y188L (HIV-1 Y188L): ≥ 305
EC50 (HIV-1 E138K): 8.66 ± 0.54 nM
RF E138K (HIV-1 E138K): 3.7
SI E138K (HIV-1 E138K): ≥ 447
EC50 (HIV-1 F227L + V106A): 165 ± 40.8 nM
RF F227L + V106A (HIV-1 F227L + V106A): 69.6
SI F227L + V106A (HIV-1 F227L + V106A): ≥ 23
CC50 at 5 days [2]: ≥ 3870 nM

Cc1cc(C)c(Oc2nc(NCCn3ccc(=O)[nH]c3=O)nc3c2SCCC3)c(C)c1 [20c, 1-(2-((4-(Mesityloxy)-7,8-dihydro-6H-thiopyrano[3,2-d]pyrimidin-2-yl)amino)ethyl)pyrimidine-2,4(1H,3H)-dione]
EC50 (HIV-1 WT strain (IIIB)): 523 ± 466 nM
EC50 [1]: > 152000 nM
CC50 at 5 days [2]: 152000 ± 28300 nM

Cc1cc(C#N)cc(C)c1Oc1nc(NC2CCN(Cc3ccc(C#N)cc3)CC2)nc2c1SCCC2 [23a, 4-((2-((1-(4-Cyanobenzyl)piperidin-4-yl)amino)-7,8-dihydro-6H-thiopyrano[3,2-d]pyrimidin-4-yl)oxy)-3,5-dimethylbenzonitrile]
EC50 (HIV-1 WT strain (IIIB)): 4.44 ± 1.39 nM
EC50 [1]: 263 ± 97.1 nM
CC50 at 5 days [2]: 3760 ± 320 nM

Cc1cc(/C=C/C#N)cc(C)c1Oc1nc(NCCn2ccc(=O)[nH]c2=O)nc2c1SCCC2 [20b, (E)-3-(4-((2-((2-(2,4-Dioxo-3,4-dihydropyrimidin-1(2H)-yl)ethyl)amino)-7,8-dihydro-6H-thiopyrano[3,2-d]pyrimidin-4-yl)oxy)-3,5-dimethylphenyl)acrylonitrile]
EC50 (HIV-1 WT strain (IIIB)): 20 ± 19.8 nM
EC50 [1]: 22700 nM
CC50 at 5 days [2]: 142000 ± 31100 nM

Cc1cc(C#N)cc(C)c1Oc1nc(Nc2ccc(C#N)cc2)nc2c1SCCC2 [compound 15a, 4-((2-((4-Cyanophenyl)amino)-7,8-dihydro-6H-thiopyrano[3,2-d]pyrimidin-4-yl)oxy)-3,5-dimethylbenzonitrile]
EC50 (HIV-1 WT strain (IIIB)): 3.38 ± 3.17 nM
EC50 [1]: 85.3 ± 54.3 nM
RF RES056 [1]: 25.2
SI RES056 [1]: 53
EC50 (HIV-1 L100I): 16.7 ± 4.51 nM
RF L100I (HIV-1 L100I): 4.9
SI L100I (HIV-1 L100I): 271
EC50 (HIV-1 K103N): 6.41 ± 0.99 nM
RF K103N (HIV-1 K103N): 1.9
SI K103N (HIV-1 K103N): 707
EC50 (HIV-1 Y181C): 42.3 ± 4.45 nM
RF Y181C (HIV-1 Y181C): 12.5
SI Y181C (HIV-1 Y181C): 107
EC50 (HIV-1 Y188L): 20.7 ± 1.88 nM
RF Y188L (HIV-1 Y188L): 6.1
SI Y188L (HIV-1 Y188L): 219
EC50 (HIV-1 E138K): 17.4 ± 2.24 nM
RF E138K (HIV-1 E138K): 5.1
SI E138K (HIV-1 E138K): 260
EC50 (HIV-1 F227L + V106A): 40.9 nM
RF F227L + V106A (HIV-1 F227L + V106A): 12.1
SI F227L + V106A (HIV-1 F227L + V106A): 111
CC50 at 5 days [2]: 4530 ± 720 nM

Cc1cc(C#N)cc(C)c1Oc1nc(NCCN2CCOCC2)nc2c1SCCC2 [compound 20d, 3,5-Dimethyl-4-((2-((2-morpholinoethyl)amino)-7,8-dihydro-6H-thiopyrano[3,2-d]pyrimidin-4-yl)oxy)benzonitrile]
EC50 (HIV-1 WT strain (IIIB)): 5690 ± 4760 nM
CC50 at 5 days [2]: 20500 ± 11300 nM

Cc1cc(C#N)cc(C)c1Oc1nc(N2CCN(Cc3ccc(S(N)(=O)=O)cc3)CC2)nc2c1SCCC2 [19a, 4-((4-(4-(4-Cyano-2,6-dimethylphenoxy)-7,8-dihydro-6H-thiopyrano[3,2-d]pyrimidin-2-yl)piperazin-1-yl)methyl)benzenesulfonamide]
EC50 (HIV-1 WT strain (IIIB)): > 3080 nM
EC50 IIIB (HIV-1 WT strain (IIIB); MT-4 cells, MTT method, HIV-1 IIIB (WT)): lost potency
CC50 at 5 days [2]: 19300 ± 3040 nM

Cc1cc(C#N)cc(C)c1Oc1nc(NCCn2ccc(=O)[nH]c2=O)nc2c1SCCC2 [20a, 4-((2-((2-(2,4-Dioxo-3,4-dihydropyrimidin-1(2H)-yl)ethyl)amino)-7,8-dihydro-6H-thiopyrano[3,2-d]pyrimidin-4-yl)oxy)-3,5-dimethylbenzonitrile]
EC50 (HIV-1 WT strain (IIIB)): 233 ± 158 nM
EC50 [1]: > 248000 nM
CC50 at 5 days [2]: > 284000 nM

Cc1cc(C#N)cc(C)c1Oc1nc(NC2CCN(Cc3cccc(S(N)(=O)=O)c3)CC2)nc2c1SCCC2 [23d, 3-((4-((4-(4-Cyano-2,6-dimethylphenoxy)-7,8-dihydro-6H-thiopyrano[3,2-d]pyrimidin-2-yl)amino)piperidin-1-yl)methyl)benzenesulfonamide]
EC50 (HIV-1 WT strain (IIIB)): 4.65 ± 0.65 nM
EC50 [1]: 790 ± 134 nM
CC50 at 5 days [2]: 5610 ± 3420 nM

Cc1cc(C#N)cc(C)c1Oc1nc(Nc2ccc(C#N)cc2)nc2c1[S+]([O-])CCC2 (centres unmarked) [16a, 4-((2-((4-Cyanophenyl)amino)-5-oxido-7,8-dihydro-6H-thiopyrano[3,2-d]pyrimidin-4-yl)oxy)-3,5-dimethylbenzonitrile]
EC50 (HIV-1 WT strain (IIIB)): 7.99 ± 0.95 nM
EC50 [1]: 445 ± 95.7 nM
CC50 at 5 days [2]: ≥ 19700 nM

Cc1cc(C#N)cc(C)c1Oc1nc(NC2CCN(Cc3ccccc3C#N)CC2)nc2c1SCCC2 [23c, 4-((2-((1-(2-Cyanobenzyl)piperidin-4-yl)amino)-7,8-dihydro-6H-thiopyrano[3,2-d]pyrimidin-4-yl)oxy)-3,5-dimethylbenzonitrile]
EC50 (HIV-1 WT strain (IIIB)): 7.1 ± 2.69 nM
EC50 [1]: 1160 ± 184 nM
CC50 at 5 days [2]: 3860 ± 1140 nM

Cc1cc(C#N)cc(C)c1Oc1nc(NC2CCN(Cc3cccc(C#N)c3)CC2)nc2c1SCCC2 [compound 23b, 4-((2-((1-(3-Cyanobenzyl)piperidin-4-yl)amino)-7,8-dihydro-6H-thiopyrano[3,2-d]pyrimidin-4-yl)oxy)-3,5-dimethylbenzonitrile]
EC50 (HIV-1 WT strain (IIIB)): 6 ± 1.03 nM
EC50 [1]: 764 ± 86.1 nM
CC50 at 5 days [2]: 3780 ± 630 nM
